Results reported in article PMC10004090, “Novel Arylsulfonylhydrazones as Breast Anticancer Agents Discovered by Quantitative Structure-Activity Relationships” (Molecules, 2023).
Read-outs that look alike come from different tables or passages of the source. Blank lines part the entries; values can stand above or below the compound they belong to.

Assays:
MCF-7 [1] = test: MTT cytotoxicity test on MCF-7 cell line; format: cell-based, human; settings: for IC50: MTT, 72 h; for MCF-7 SI: selectivity index = IC50 on Neuro-2a/IC50 on MCF-7
Protocol: (§1) The anticancer activity of the novel arylsulfonylhydrazones was tested on two BC cell lines: MCF-7 and MDA-MB-231. The cell line MCF-7 originates from human breast adenocarcinoma and expresses estrogen receptor alpha (ER-α), while the cell line MDA-MB-231 represents TNBC adenocarcinoma and lacks any receptor [40]. To test the cytotoxicity of the compounds on healthy cells, they were incubated within Neuro-2a cells, which are mouse neuroblasts isolated from brain tissue.
(§2) The in vitro antineoplastic activity of the newly synthesized compounds was evaluated against human BC cell lines of different molecular types: the triple negative MDA-MB-231 cell line and the ER/PR/Her2 positive variant MCF-7, as well as against mouse neuroblast cells, Neuro-2a. All cell lines were purchased from the German Collection of Microorganisms and Cell Cultures (DSMZ GmbH, Braunschweig, Germany) and cultivated according to supplier’s instructions. Cells were cultured in an RPMI 1640 growth medium supplemented with 10% fetal bovine serum (FBS) and 5% L-glutamine, and incubated under standard conditions of 37 °C and 5% humidified CO2 atmosphere.
(§3) The cytostatic activity of the experimental compounds was investigated using an established methodology for assessing cell viability known as the Mosmann MTT method. The assay is colorimetric and measures the activity of mitochondrial enzymes by reducing the yellow dye MTT (3-(4,5-dimethylthiazol-2-yl)-2,5-diphenyltetrazolium bromide) to violet formazan crystals. Exponential-phased cells were harvested and seeded (100 μL/well) in 96-well plates at 1.5 × 10^5 density and incubated for 24 h. Cell cultures were treated and exposed to various concentrations (200–6.25 μM) of the tested compounds for 72 h, following which cell survival was quantified as percentage (%) relative to untreated control (100% cell viability).
(§4) Experimental data were processed using nonlinear regression analysis in the GraphPad Prism® software program. Semi-logarithmic “dose-response” curves were plotted and half-inhibitory concentrations (IC50) of the screened compounds were calculated for each of the tested tumor cell lines.

MCF-7 [2] = settings: ligand efficiency LE = pIC50/N; training set 3a–o and cisplatin; cited from earlier work
MDA-MB-231 = test: MTT cytotoxicity test on MDA-MB-231 cell line; format: cell-based, human; settings: for LE MDA-MB-231 Exp: LE = pIC50/N from MTT IC50, 72 h; for IC50: MTT, 72 h; for MDA-MB-231 SI: selectivity index = IC50 on Neuro-2a/IC50 on MDA-MB-231
Protocol: as §1, §2, §3, §4

Neuro-2a = test: MTT cytotoxicity test on Neuro-2a cells (healthy-cell control); format: cell-based, mouse; settings: for IC50: MTT, 72 h, healthy cells
Protocol: as §1, §2, §3, §4

MDA-MB-468 = settings: ligand efficiency LE = pIC50/N; training set 5a–k and doxorubicin; cited from earlier work
MCF-7 [3] = settings: ligand efficiency LE = pIC50/N; training set 5a–k and doxorubicin; cited from earlier work

Compound: N.N.[Cl][Pt][Cl] [Cisplatin, reference compound]
- IC50 (MCF-7 [1]): 50.3 ± 6.5 µM
- LE MCF-7 (MCF-7 [2]): 0.931
- LE MDA-MB-231 Exp (MDA-MB-231): 0.840
- IC50 (MDA-MB-231): 63.4 ± 7.2 µM

Compound: COc1ccc2[nH]cc(/C=N\NS(=O)(=O)c3ccccc3)c2c1 [Compound 1a, N’-[(Z)-(5-methoxy-1H-indol-3-yl)methylidene]benzenesulfonohydrazide]
- IC50 (MCF-7 [1]; Homo sapiens, MCF7, 72 h): < 1 µM
- IC50 (MCF-7 [1]): 0.6 ± 0.2 µM
- IC50 (Neuro-2a; Mus musculus, N2a): 5.2 ± 0.9 µM
- IC50 (MDA-MB-231; Homo sapiens, MDA-MB-231, 72 h): 3.1 ± 0.7 µM

- melting point: 201 to 202 °C
Compound: COc1ccc2[nH]cc(/C=N/NS(=O)(=O)c3ccc(C)cc3)c2c1 [Compound 1b, N’-[(E)-(5-methoxy-1H-indol-3-yl)methylidene]-4-methylbenzenesulfonohydrazide]
- IC50 (MCF-7 [1]; Homo sapiens, MCF7, 72 h): < 1 µM
- IC50 (MCF-7 [1]): 0.8 ± 0.3 µM
- MCF-7 SI (MCF-7 [1]): 5.000
- IC50 (Neuro-2a; Mus musculus, N2a): 4 ± 0.4 µM
- IC50 (MDA-MB-231; Homo sapiens, MDA-MB-231, 72 h): 8.5 ± 2.1 µM

- melting point: 209 to 210 °C
Compound: CC(=O)n1cc(/C=N/NS(=O)(=O)c2ccccc2)c2ccccc21 [Compound 1c, N’-[(E)-(1-acetyl-1H-indol-3-yl)methylidene]benzenesulfonohydrazide]
- IC50 (MCF-7 [1]; Homo sapiens, MCF7, 72 h): < 1 µM
- IC50 (MCF-7 [1]): 0.9 ± 0.4 µM
- IC50 (Neuro-2a; Mus musculus, N2a): 36.2 ± 4.3 µM
- IC50 (MDA-MB-231; Homo sapiens, MDA-MB-231, 72 h): 19.2 ± 3.4 µM

Compound: CC(=O)n1cc(/C=N/NS(=O)(=O)c2ccc(C)cc2)c2ccccc21 [Compound 1d, N’-[(E)-(1-acetyl-1H-indol-3-yl)methylidene]-4-methylbenzenesulfonohydrazide]
- IC50 (MCF-7 [1]; Homo sapiens, MCF7, 72 h): 1.8 ± 0.6 µM
- MCF-7 SI (MCF-7 [1]): 46
- IC50 (Neuro-2a; Mus musculus, N2a): 82.8 ± 8.1 µM
- IC50 (MDA-MB-231; Homo sapiens, MDA-MB-231, 72 h): 65.1 ± 6.1 µM
- MDA-MB-231 SI (MDA-MB-231): 1.272

Compound: O=S(=O)(N/N=C/c1c[nH]c2ccc(Cl)cc12)c1ccccc1 [Compound 1e, N’-[(E)-(5-chloro-1H-indol-3-yl)methylidene]benzenesulfonohydrazide]
- IC50 (MCF-7 [1]; Homo sapiens, MCF7, 72 h): < 1 µM
- IC50 (MCF-7 [1]): 0.5 ± 0.1 µM
- MCF-7 SI (MCF-7 [1]): 13
- IC50 (Neuro-2a; Mus musculus, N2a): 6.5 ± 1.1 µM
- IC50 (MDA-MB-231; Homo sapiens, MDA-MB-231, 72 h): < 1 µM
- IC50 (MDA-MB-231): 0.9 ± 0.2 µM

Compound: COc1ccc(/C=N/NS(=O)(=O)c2ccccc2)cc1OC [Compound 1f, N’-[(E)-(3,4-dimethoxyphenyl)methylidene]benzenesulfonohydrazide]
- IC50 (MCF-7 [1]; Homo sapiens, MCF7): 5.97 ± 2.1 µM
- IC50 (MDA-MB-231; Homo sapiens, MDA-MB-231): 266 ± 19.7 µM
- MDA-MB-231 SI (MDA-MB-231): 0.410

Compound: COc1ccc(/C=N/NS(=O)(=O)c2ccc(C)cc2)cc1OC [Compound 1g, N’-[(E)-(3,4-dimethoxyphenyl)methylidene]-4-methylbenzenesulfonohydrazide]
- IC50 (MCF-7 [1]; Homo sapiens, MCF7): 56.1 ± 8.4 µM
- MCF-7 SI (MCF-7 [1]): 2.415
- IC50 (MDA-MB-231; Homo sapiens, MDA-MB-231): > 500 µM

Compound: O=S(=O)(N/N=C/c1ccc(Cl)cc1)c1ccccc1 [Compound 1h, N’-[(E)-(4-chlorophenyl)methylidene]benzenesulfonohydrazide]
- IC50 (MCF-7 [1]; Homo sapiens, MCF7): 157 ± 11.2 µM
- MCF-7 SI (MCF-7 [1]): 0.747
- IC50 (MDA-MB-231; Homo sapiens, MDA-MB-231): 63.1 ± 6.9 µM
- MDA-MB-231 SI (MDA-MB-231): 1.861

Compound: Cc1ccc(S(=O)(=O)N/N=C\c2ccc3c(c2)OC(F)(F)O3)cc1 [Compound 3a]
- LE MCF-7 (MCF-7 [2]): 0.174

Compound: Cc1ccc(S(=O)(=O)N/N=C\c2cc(Br)cs2)cc1 [Compound 3b]
- LE MCF-7 (MCF-7 [2]): 0.203

Compound: Cc1ccc(S(=O)(=O)N/N=C\c2cc(-c3ccccc3)cs2)cc1 [Compound 3c]
- LE MCF-7 (MCF-7 [2]): 0.189

Compound: Cc1ccc(S(=O)(=O)N/N=C\c2ccc(F)c(Oc3ccccc3)c2)cc1 [Compound 3d]
- LE MCF-7 (MCF-7 [2]): 0.121

Compound: Cc1ccc(S(=O)(=O)N/N=C\c2cccc(C(F)(F)F)c2Cl)cc1 [Compound 3e]
- LE MCF-7 (MCF-7 [2]): 0.148

Compound: COc1cc(/C=N\NS(=O)(=O)c2ccc(C)cc2)ccc1F [Compound 3f]
- LE MCF-7 (MCF-7 [2]): 0.207

Compound: COc1ccc(/C=N\NS(=O)(=O)c2ccc(C)cc2)cc1[N+](=O)[O-] [Compound 3g]
- LE MCF-7 (MCF-7 [2]): 0.143

Compound: Cc1ccc(S(=O)(=O)N/N=C\c2c[nH]nc2-c2ccccc2)cc1 [Compound 3h]
- LE MCF-7 (MCF-7 [2]): 0.141

Compound: COc1ccc(Br)cc1/C=N\NS(=O)(=O)c1ccc(C)cc1 [Compound 3i]
- LE MCF-7 (MCF-7 [2]): 0.170

Compound: Cc1ccc(S(=O)(=O)N/N=C\c2ccc(F)cc2C(F)(F)F)cc1 [Compound 3j]
- LE MCF-7 (MCF-7 [2]): 0.148

Compound: COc1cccc(/C=N\NS(=O)(=O)c2ccc(C)cc2)c1Cl [Compound 3k]
- LE MCF-7 (MCF-7 [2]): 0.197

Compound: Cc1ccc(S(=O)(=O)N/N=C\c2c(C)cccc2Cl)cc1 [Compound 3l]
- LE MCF-7 (MCF-7 [2]): 0.180

Compound: Cc1ccc(S(=O)(=O)N/N=C\c2cccc(Br)n2)cc1 [Compound 3m]
- LE MCF-7 (MCF-7 [2]): 0.176

Compound: Cc1ccc(S(=O)(=O)N/N=C\c2cccn2C)cc1 [Compound 3n]
- LE MCF-7 (MCF-7 [2]): 0.207

Compound: Cc1ccc(S(=O)(=O)N/N=C\c2ccccc2OC(F)(F)F)cc1 [Compound 3o]
- LE MCF-7 (MCF-7 [2]): 0.166

Compound: COc1ccc(S(=O)(=O)N/N=C\c2cn(CCN3CCOCC3)c3ccccc23)cc1 [Compound 5a]
- LE MDA-MB-468 (MDA-MB-468): 0.141
- LE MCF-7 (MCF-7 [3]): 0.136

Compound: Cc1ccc(S(=O)(=O)N/N=C\c2cn(CCN3CCOCC3)c3ccccc23)cc1 [Compound 5b]
- LE MDA-MB-468 (MDA-MB-468): 0.146
- LE MCF-7 (MCF-7 [3]): 0.140

Compound: O=S(=O)(N/N=C\c1cn(CCN2CCOCC2)c2ccccc12)c1ccccc1 [Compound 5c]
- LE MDA-MB-468 (MDA-MB-468): 0.149
- LE MCF-7 (MCF-7 [3]): 0.143

Compound: O=S(=O)(N/N=C\c1cn(CCN2CCOCC2)c2ccccc12)c1ccc(F)cc1 [Compound 5d]
- LE MDA-MB-468 (MDA-MB-468): 0.161
- LE MCF-7 (MCF-7 [3]): 0.150

Compound: O=[N+]([O-])c1ccc(S(=O)(=O)N/N=C\c2cn(CCN3CCOCC3)c3ccccc23)cc1 [Compound 5e]
- LE MDA-MB-468 (MDA-MB-468): 0.138
- LE MCF-7 (MCF-7 [3]): 0.128

Compound: O=S(=O)(N/N=C\c1cn(CCN2CCOCC2)c2ccccc12)c1ccc(Cl)cc1 [Compound 5f]
- LE MDA-MB-468 (MDA-MB-468): 0.170
- LE MCF-7 (MCF-7 [3]): 0.163

Compound: O=S(=O)(N/N=C\c1cn(CCN2CCOCC2)c2ccccc12)c1ccc2ccccc2c1 [Compound 5h]
- LE MDA-MB-468 (MDA-MB-468): 0.110
- LE MCF-7 (MCF-7 [3]): 0.116

Compound: COc1cccc2c1C(=O)c1c(O)c3c(c(O)c1C2=O)C[C@@](O)(C(=O)CO)C[C@@H]3O[C@H]1C[C@H](N)[C@H](O)[C@H](C)O1 [Doxorubicin]
- LE MDA-MB-468 (MDA-MB-468): 0.182
- LE MCF-7 (MCF-7 [3]): 0.185

Compound: N’-[(E)-(5-methoxy-1-methyl-1H-indol-3-yl)methylidene]benzenesulfonohydrazide [Compound 1i]
- LE MCF-7 Exp (MCF-7 [1]; LE = pIC50/N from MTT IC50, 72 h): 0.158
- IC50 (MCF-7 [1]): 165 ± 8.6 µM
- MCF-7 SI (MCF-7 [1]): 0.818
- Neuro-2a LE (Neuro-2a; LE = pIC50/N): 0.161
- IC50 (Neuro-2a): 135 ± 10.9 µM
- LE MDA-MB-231 Exp (MDA-MB-231): 0.178
- IC50 (MDA-MB-231): 54.8 ± 7.4 µM
- MDA-MB-231 SI (MDA-MB-231): 2.462
